Reference: patent US7691985B2, “Skeletal-targeted radiation to treat bone-associated pathologies” (priority 1999, dated 2010)

Test system: Multiple myeloma patients
Assay: ^166Ho-DOTMP plus melphalan with or without TBI and stem cell transplant, Phase I/II (Examples 7, 11, 13)
Assay type: in vivo, human
Description: Multiple myeloma patients (≦65 yrs. of age) that have responded to initial chemotherapy or have primary refractory disease or chemotherapy responsive relapse, but who are not in refractory relapse are treated. Patients are well hydrated with fluids during the day prior to the diagnostic dose. An initial diagnostic dose of 30 mCi of ^166Ho-DOTMP is administered to confirm the selective localization to the skeleton, establish the in-vivo pharmacokinetics and provide radiation dosimetry estimates for the red marrow. Assuming >15% of the ^166Ho-DOTMP accumulates in bone following the injection, the amount of ^166Ho-DOTMP required for therapy is calculated based on delivering a specified radiation absorbed dose to the marrow. Patients receive the therapeutic dose by intravenous injection over 5-10 minutes, given over 1-3 days >48 hrs after the dosometry (test) dose.
The time line for conducting the investigation is as follows: Test dose ^166Ho-DOTMP (30 mCi); ^166Ho scan image (0, 4-6, 20-24 hr.); Blood samples for dosimetry (10, 30 min, 1, 2, 6, 20-24 hr.); Urine samples (0-6, 6-12, 12-24, 24-48 hr.); and External whole body probe (0, 2, 6, 24 and 48 hr.).
Melphalan is administered 48 hr prior to the predicted PBSC infusion based upon dosimetry assessment from the test dose. PBSC infusion is administered when bone marrow dose from ^166Ho is ≦1 cGy/hr. Patients were treated at 20, 30, 40 and prospectively 50 Gy, and with 140 mg/m^2 and 200 mg/m^2 melphalan.
The MTD was defined as the level that is associated with a true toxicity rate of 20%, where toxicity for these purposes was taken to be grade 3 or greater extramedullary drug related toxicity.
All toxicities encountered during the study will be evaluated according to Bearman criteria (Bearman et al., J Clin Oncol, 6,1562, (1988)). Graft failure is considered a grade 3 toxicity. Graft failure is defined as failure to recover granulocytes to 0.5×10^9/l or platelets 20×10^9/l within 28 days of transplant or a fall to less than these levels for 3 or more consecutive days after day 28 without other apparent cause. Hematopoietic recovery (engraftment) is defined as having a sustained granulocyte count of 0.5×10^9/l for two consecutive counts post transplant and a platelet count 20×10^9/l for seven consecutive counts post transplant, without transfusion support. The first of two counts for the granulocyte count and the first of seven counts for the platelet count are considered the day of engraftment.
Patients undergo blood stem cell infusion at the time when ongoing radiation to the marrow falls to <1 rad/hr, and at least 24 hours after melphalan infusion. The total volume of stored cells is infused into a free flowing IV line primed with normal saline. Patients are premedicated with acetaminophen 650 mg PO and diphenhydramine 50 mg PO or IV. All patients receive conventional supportive care for autologous/syngeneic blood and marrow transplantation, (such as allopurinol, menstrual suppression, prophylactic antibiotics, empiric antibiotics, IV Ig, transfusions of blood products, hyperalimentation, and the like).
Patients, afflicted with multiple myeloma, were treated according to the method of the present invention. The dosage range of radiation from the complex was 460 mCi to 4.5 Ci.
Fifty-three patients received intravenous hydration only, while 30 patients received both IV hydration and continuous bladder irrigation.
In order to achieve a complete response using protocol criteria, a patient must have a complete absence of any myeloma protein in the blood/urine and marrow post treatment. The patient must have normal bone marrow with complete resolution of plasmocytomas and no increase in bone lesions. To meet international standards, this must be maintained for 6 weeks. While response rates to a conventional high dose therapy vary widely, in general for previously treated patients, there is a range of 5-25% CR rate. […]

[1] = 140 mg/m^2 melphalan w/ TBI, 20 Gy to marrow
[2] = 140 mg/m^2 melphalan w/ TBI, 30 Gy to marrow
[3] = 140 mg/m^2 melphalan w/ TBI, 40 Gy to marrow
[4] = 140 mg/m^2 melphalan w/o TBI, 20 Gy to marrow
[5] = 140 mg/m^2 melphalan w/o TBI, 30 Gy to marrow
[6] = 140 mg/m^2 melphalan w/o TBI, 40 Gy to marrow
[7] = 200 mg/m^2 melphalan w/o TBI, 20 Gy to marrow
[8] = 200 mg/m^2 melphalan w/o TBI, 30 Gy to marrow
[9] = 200 mg/m^2 melphalan w/o TBI, 40 Gy to marrow
[10] = 40 patients who received 200 mg/m^2 melphalan and were not in CR at treatment
[11] = nine patients, 750+/−10% mCi/m^2
[12] = nine patients, dose 750 mCi/m^2 (±10%)
[13] = patients who received more than 1500 mCi
[14] = patients who received ≦1500 mCi
[15] = ≦30 Gy marrow dose, 35 evaluable patients

For `O=P([O-])(O)CN1CCN(CP(=O)(O)O)CCN(CP(=O)([O-])O)CCN(CP(=O)(O)O)CC1.[166Ho]` [^166Ho-DOTMP], the “Days to ANC > 500” value [1] was 9 days, the “Days to Platelets > 20,000” value [1] was 12 days and the “Number of Patients w/ Grade 3 Toxicity” value [1] was 0/8. For the same compound, the “Days to ANC > 500” value [2] was 11 days, the “Days to Platelets > 20,000” value [2] was 12 days and the “Number of Patients w/ Grade 3 Toxicity” value [2] was 1/8. The “Days to ANC > 500” value [3] was 9 days, the “Days to Platelets > 20,000” value [3] was 13 days and the “Number of Patients w/ Grade 3 Toxicity” value [3] was 0/20. The “Complete Response” value (140 mg/m^2 melphalan w/ TBI, all marrow doses) was 7/17, the “Days to ANC > 500” value [4] was 10 days and the “Days to Platelets > 20,000” value [4] was 10 days. For the same compound, the “Number of Patients w/ Grade 3 Toxicity” value [4] was 0/5, the “Days to ANC > 500” value [5] was 16 days and the “Days to Platelets > 20,000” value [5] was 10 days. For the same compound, the “Number of Patients w/ Grade 3 Toxicity” value [5] was 0/4, the “Days to ANC > 500” value [6] was 12 days and the “Days to Platelets > 20,000” value [6] was 10 days. For the same compound, the “Number of Patients w/ Grade 3 Toxicity” value [6] was 0/7, the “Complete Response” value (140 mg/m^2 melphalan w/o TBI, all marrow doses) was 3/14 and the patients alive (200 mg/m^2 melphalan patients, mean follow-up time 39.4 months) was “Sixty-one”. For the same compound, the “Days to ANC > 500” value [7] was 10 days, the “Days to Platelets > 20,000” value [7] was 11 days and the “Number of Patients w/ Grade 3 Toxicity” value [7] was 0/4. For the same compound, the “Days to ANC > 500” value [8] was 12 days, the “Days to Platelets > 20,000” value [8] was 10 days and the “Number of Patients w/ Grade 3 Toxicity” value [8] was 0/7. The “Days to ANC > 500” value [9] was 10.5 days, the “Days to Platelets > 20,000” value [9] was 10 days and the “Number of Patients w/ Grade 3 Toxicity” value [9] was 0/14. The “Complete Response” value (200 mg/m^2 melphalan w/o TBI, all marrow doses) was 8/9, the complete remission [10] was 39% and the partial response [10] was 32%. For the same compound, the “patients who developed grade 3-4 renal toxicity” value (83 patients) was “Twenty-five”, the “symptoms of long-term kidney dysfunction” value (83 patients, 5-12 months post-therapy) was 40% and the patient deaths (Phase I/II studies, to date) was 21. The complete response rate (across all ^166Ho-DOTMP/melphalan±TBI doses, 77 patients with response data) was 35%, the “patients with a partial response” value (across all doses, 77 patients with response data) was “Twenty-four” and the “Grade 1-3 hemorrhagic cystitis (HC) observed” value (all patients) was 24 patients. The “patients who developed TTP/HUS” value (all treated at 40 Gy or higher to the marrow) was “Seven”, the “cases of Grade 3-4 renal toxicities” value [11] was “no cases of Grade 3-4 renal toxicities” and the “cases of TTP/HUS” value [11] was “no cases of TTP/HUS”. For the same compound, the 2-year survival [12] was 100%, the CR rate [12] was 44.4% and the “Grade 1-3 hemorrhagic cystitis (HC), patients treated without continuous bladder irrigation (CBI)” value (of the 24 patients with HC) was 22 patients. The “cases of TTP and Grade 3 or high renal toxicity” value (patients administered less than 1500 mCi) was “no reported cases”, the “cases of TTP/HUS” value (patients treated at doses, 675 mCi/m^2) was “no cases of TTP/HUS occurred” and the “incidence of sustained renal dysfunction” value (patients who received less than 1500 mCi) was 23%. It also gave a CR rate [13] of 36%, a Two-year survival [13] of 67% and a CR rate [14] of 32%. The Two-year survival [14] was 77%, the “patients with renal dysfunction not related to TTP/HUS or progressive myeloma” value (serum creatinine >2 mg/dL twice or >3 mg/dL once) was “nine” and the tolerability (with melphalan at 200 mg/m^2) was “well tolerated”. The “survival of 12 months” value (≦30 Gy marrow dose) was 100%, the Complete Response [15] was 30% and the partial response [15] was 32%. For the same compound, the progressive disease [15] was “None” and the stable disease [15] was 32%.
